# Read-outs that look alike come from different tables or passages of the source.
# Experiments:
# patterned hPSC-CMs = experiment: Fluorometric cellular ROS / NO / superoxide detection assay in patterned hPSC-CMs; assay type: cell-based, human; settings: patterned cells
# Description: PGC1-α is known to perform a central controlling role in global oxidative metabolism through induction of mitochondrial biogenesis and tuning of the intrinsic metabolic properties of mitochondria_ENREF_35. […] Based on this understanding, a fluorometric cellular ROS detection assay was performed on unpatterned and patterned hPSC-CMs to determine whether upregulation of the PGC1-α protein in patterned cells had any notable impact on oxidative stress. FIGS. 8A-8F show the effect of nanotopography on expression of oxidative stress markers in cultured hPSC-CMs. […] Samples analyzed were patterned cells treated with an NO scavenger (NO−), patterned cells treated with an NO inducer (NO+), untreated unpatterned cells, and untreated patterned cells. […] No difference was observed between flat and patterned samples. […] Samples analyzed were patterned cells treated with an ROS inhibitor (ROS−), patterned cells treated with an ROS inducer (ROS+), untreated unpatterned cells, and untreated patterned cells. […] […] A significant difference was also observed between flat and patterned samples. In all presented data, *p<0.05.
# hPSC-CM monolayers [1] = experiment: MEA field potential recording (FPDc, arrhythmia) of hPSC-CM monolayers on flat MEAs and nanoMEAs
# Excerpt: Median difference in beat interval (ΔBI), mean ΔBI, and the standard deviation of the ΔBI were compared in order to provide quantification of baseline arrhythmic properties in line with previously published methods.
# The ability to pattern individual wells within a multiwell MEA plate enabled assessment of multiple doses across both surface conditions within a single device, thereby increasing throughput for such comparative studies. Verapamil was first examined as a negative control compound.
# FIG. 12A depicts representative traces (averaged across 10 beats) recorded from hPSC-CM monolayers on flat MEAs and subjected to increasing doses of verapamil. FIG. 12B depicts representative traces recorded from hPSC-CM monolayers on nanoMEAs and subjected to increasing doses of verapamil. FIG. 12C depicts normalized dose response curve illustrating the effect for increasing concentrations of verapamil on the field potential durations corrected for beat rate (FPDc) of unpatterned and patterned hPSC-CMs.
# […] depicts representative traces recorded from hPSC-CM monolayers on flat MEAs and subjected to increasing doses of cisapride. […] depicts representative traces recorded from hPSC-CM monolayers on nanoMEAs and subjected to increasing doses of cisapride. FIG. 12F depicts normalized dose response curve illustrating the effect of increasing concentrations of cisapride on the FPDc of unpatterned and patterned hPSC-CMs.
# The mechanism by which bepridil prolongs QT is yet to be fully elucidated. However, in addition to regulating Ca^2+ release, it is known that bepridil competes with cTnI for troponin C binding sites, thereby altering Ca^2+ sensitivity in exposed cells. […] FIG. 12G depicts representative traces recorded from hPSC-CM monolayers on flat MEAs and subjected to increasing doses of bepridil. FIG. 12H depicts representative traces recorded from hPSC-CM monolayers on nanoMEAs and subjected to increasing doses of bepridil. FIG. 12I depicts normalized dose response curve illustrating effect of increasing concentrations of bepridil on the FPDc of unpatterned and patterned hPSC-CMs.
# hPSC-CM monolayers [2] = experiment: MEA conduction velocity (TCV, LCV) across hPSC-CM monolayers on flat and nanotopographically-patterned MEAs; assay type: cell-based, human; settings: for IC50: Homo sapiens, longitudinal conduction velocity, read-out: IC50 from LCV data
# Excerpt: Additionally, interrogation of monolayer culture by MEA facilitates assessment of conduction velocity in a manner that is difficult when using single cell analysis methods, such as patch clamp electrophysiology. For all propagation experiments discussed herein, longitudinal conduction dictates the vertical orientation on the MEA as all nanopatterns were oriented to run vertically during pattern generation. FIG. 6I depicts measurement of conduction velocity (CV) across hPSC-CM monolayers on flat and nanotopographically-patterned MEAs. Conduction was measured specifically in both the transverse (TCV) and longitudinal (LCV) orientations and underlying nanotopography was organized to run longitudinally. In all presented data, *p<0.03, **p<0.003, ***p<0.001. […] Furthermore, longitudinal conduction velocities measured from patterned cells were substantially faster than similar measurements taken from flat controls, as well as global (non-directional) conduction velocity measurements. Specifically, longitudinal conduction velocity measured from patterned cells was recorded as 32.73 cm/s±9.51, whereas flat controls produced longitudinal and global conduction speeds of 10.32 cm/s±2.62 and […], respectively.
# In cardiac tissue, it is known to exert a strong conduction blocking effect, inhibiting action potential propagation and in turn affecting synchronous contraction of the tissue.
# Dose response curves were calculated from analysis of propagation speeds in both the transverse (TCV) and longitudinal (LCV) directions. The R^2 values for TCV and LCV curve fits were 0.23 and 0.11, respectively. […] The R^2 values for TCV and LCV curve fits were 0.21 and 0.28, respectively.
# Furthermore, the inconsistency of the propagation waves on these surfaces led to substantial variability in measured values across experimental repeats, making it difficult to construct well-fitted dose response curves. […] Residual values indicate the vertical distance (in Y units; in this case % change in conduction velocity) of the measured points from the fit line.
# 3D cardiac tissues = experiment: Field potential duration of 3D cardiac tissues on nanoMEA; assay type: cell-based; settings: increasing doses, 3D patterned versus 2D unpatterned and 2D patterned, 21 days culture
# Description: FIG. 15 depicts engineered cardiac tissue responses to treatment with increasing doses of the hERG channel blocker cisapride on 2D unpatterned, 2D patterned and 3D patterned cell cultures. […] In this experiment, cells are first plated onto a nanoMEA substrate in a 4 μL droplet of medium. 17,500 cells are resuspended in this droplet and allowed to adhere to the substrate for 1 hour. At this point, a further 17,500 cells in 2 μL of medium are plated on top of the existing droplet and allowed to adhere to the first layer of cells. This process is repeated 2 more times to form 4 layers of cells on top of the patterned substrate. Cells on the first layer align in parallel with the underlying substrate and subsequent layers align in parallel with the layer below. Cardiomyocytes are mixed with cardiac fibroblasts at a ratio of 10 cardiomyocytes to 1 fibroblast. An hour after the last plating, the MEA wells are flooded with additional medium to maintain the cells and the constructs are then cultured out to 21 days before being used for drug screening assessment.
# [3] = tested on: HCM hPSC-CMs (MYH7 R663H variant); experiment: Depolarizing spike slope of HCM patient-derived hPSC-CMs on flat and patterned MEAs; assay type: cell-based, human; settings: 1 μM, 30 minutes, patterned HCM cells
# Excerpt: Hypertrophic cardiomyopathy (HCM) manifests as a thickening of the myocardial tissue, typically due to mutations in genes encoding specific sarcomeric proteins.
# FIG. 14A depicts an immunostained image of hPSC-CMs obtained from HCM patients and maintained on flat Nafion substrates. FIG. 14B depicts an immunostained image of hPSC-CMs obtained from an unaffected family member related to the examined HCM patient and maintained on flat Nafion substrates. FIG. 14C depicts an immunostained image of hPSC-CMs obtained from HCM patients and maintained on patterned Nafion substrates. FIG. 14D depicts an immunostained image of hPSC-CMs obtained from an unaffected family member related to the examined HCM patient and maintained on patterned Nafion substrates. FIG. 14E depicts quantification of sarcomere length measured from HCM and familial control hPSC-CMs maintained on flat and patterned Nafion substrates. FIG. 14F depicts quantification of z-band width measured from HCM and familial control hPSC-CMs maintained on flat and patterned Nafion substrates. FIG. 14G depicts representative QRS complex traces collected from HCM hPSC-CMs on flat and patterned MEAs. FIG. 14H depicts fold-change in average spike slope (Q-R angle) measured across 30 beats from normal and HCM hPSC-CMs on flat and patterned MEAs. […]
# [4] = unpatterned and patterned cells, increasing doses
molecule,measurement,setting,value
N=C(N)NCCC[C@H](N)C(=O)O [L-arginine],"pixel intensity, NO detection reagent",patterned hPSC-CMs,significantly higher than all other groups
CC(=O)N[C@@H](CS)C(=O)O [N-acetyl-L-cysteine],"pixel intensity, oxidative stress detection reagent",patterned hPSC-CMs,"significantly lower than all other groups examined, with the exception of the patterned samples"
same,"pixel intensity, superoxide detection reagent",patterned hPSC-CMs,significantly lower than all other groups
Cn1c2cccc(=O)c-2nc2ccccc21 [Pyocyanin],"pixel intensity, oxidative stress detection reagent",patterned hPSC-CMs,significantly higher values then all other groups
same,"pixel intensity, superoxide detection reagent",patterned hPSC-CMs,significantly higher than all other groups
CC(C)COCC(CN(Cc1ccccc1)c1ccccc1)N1CCCC1 (stereo not shown) [bepridil],change in FPDc,hPSC-CM monolayers [1],not significantly different from baseline
same,effect on FPDc,hPSC-CM monolayers [1],significant prolongation of FPDc
same,change in FPDc from baseline,"hPSC-CM monolayers [1]; 1 μM, flat cells",7%
same,increase of FPDc from baseline,"hPSC-CM monolayers [1]; 1 μM, patterned cells",roughly 20%
CC1(C)[C@@H](OC(=O)CCC(=O)O)CC[C@]2(C)[C@H]3C(=O)C=C4[C@@H]5C[C@@](C)(C(=O)O)CC[C@]5(C)CC[C@@]4(C)[C@]3(C)CC[C@@H]12 [carbenoxolone],IC50,hPSC-CM monolayers [2]; flat hPSC-CM monolayers,398 nM
same,IC50,hPSC-CM monolayers [2]; nanotopographically-patterned hPSC-CM monolayers,14.7 nM
same,effect on conduction speeds,"hPSC-CM monolayers [2]; in vitro, nanoMEA platform",significantly reduced conduction speeds
COc1cc(N)c(Cl)cc1C(=O)NC1CCN(CCCOc2ccc(F)cc2)CC1OC (stereo not shown) [cisapride],effect on FPDc / field potential,hPSC-CM monolayers [1],significant prolongation of the field potential
same,FPDc prolongation,"hPSC-CM monolayers [1]; 1 μM, cells on both substrates",~50%
same,"field potential duration prolongation, 3D versus 2D cultures",3D cardiac tissues,significantly stronger reactions
COc1ccc(CCN(C)CCCC(C#N)(c2ccc(OC)c(OC)c2)C(C)C)cc1OC (stereo not shown) [verapamil],arrhythmogenic effect,hPSC-CM monolayers [1]; [4],no notable arrhythmogenic effect
same,effect on FPDc / field potential,hPSC-CM monolayers [1]; [4],significant shortening of FPDc
same,effect on depolarizing spike slope,[3],improved patterned HCM spike slopes
c-PTIO,"pixel intensity, NO detection reagent",patterned hPSC-CMs,significantly lower than all other groups
